Experimental data taken from patent US20220281848A1, “PYRAZOLE-SUBSTITUTED PYRROLIDINONES AS HERBICIDES” (FMC Corporation, priority 2019, published 2022).

Test system: plants
Test: Test D pre-emergence, other plants of Tables D1 and D3
Assay type: in vivo
Settings: preemergent, 20 DAA
How it was run: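 Damage was rated visually from 0 (none) to 100 (total), at 20 DAA for pre-emergence and 15 d for post-emergence. Plants grew from safener-treated seed in a glasshouse at 24/18° C. or 20/16° C. day/night, 65% humidity, watered twice daily.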

CN1CC(c2cc(C(F)(F)F)n(C)n2)C(C(=O)Nc2cccc(F)c2C(F)(F)F)C1=O (racemic) [Compound 19]
damage to plant (100=total damage to plant; 0=no damage to plant), ABUTH (rate 15): 0
damage to plant (100=total damage to plant; 0=no damage to plant), ABUTH (rate 30): 0
damage to plant (100=total damage to plant; 0=no damage to plant), ABUTH (rate 60): 0
damage to plant (100=total damage to plant; 0=no damage to plant), ABUTH (rate 130): 0
damage to plant (100=total damage to plant; 0=no damage to plant), ABUTH (rate 250): 0
damage to plant (100=total damage to plant; 0=no damage to plant), ABUTH (rate 500): 10
damage to plant (100=total damage to plant; 0=no damage to plant), AMARE (rate 15): 0
damage to plant (100=total damage to plant; 0=no damage to plant), AMARE (rate 30): 0
damage to plant (100=total damage to plant; 0=no damage to plant), AMARE (rate 60): 0
damage to plant (100=total damage to plant; 0=no damage to plant), AMARE (rate 130): 0
damage to plant (100=total damage to plant; 0=no damage to plant), AMARE (rate 250): 0
damage to plant (100=total damage to plant; 0=no damage to plant), AMARE (rate 500): 0
damage to plant (100=total damage to plant; 0=no damage to plant), BIDPI (rate 15): 0
damage to plant (100=total damage to plant; 0=no damage to plant), BIDPI (rate 30): 0
damage to plant (100=total damage to plant; 0=no damage to plant), BIDPI (rate 60): 0
damage to plant (100=total damage to plant; 0=no damage to plant), BIDPI (rate 130): 0
damage to plant (100=total damage to plant; 0=no damage to plant), BIDPI (rate 250): 0
damage to plant (100=total damage to plant; 0=no damage to plant), BIDPI (rate 500): 0
damage to plant (100=total damage to plant; 0=no damage to plant), BRAPL (rate 15): 0
damage to plant (100=total damage to plant; 0=no damage to plant), BRAPL (rate 30): 40
damage to plant (100=total damage to plant; 0=no damage to plant), BRAPL (rate 60): 70
damage to plant (100=total damage to plant; 0=no damage to plant), BRAPL (rate 130): 80
damage to plant (100=total damage to plant; 0=no damage to plant), BRAPL (rate 250): 80
damage to plant (100=total damage to plant; 0=no damage to plant), BRAPL (rate 500): 90
damage to plant (100=total damage to plant; 0=no damage to plant), CYPES (rate 15): 0
damage to plant (100=total damage to plant; 0=no damage to plant), CYPES (rate 30): 0
damage to plant (100=total damage to plant; 0=no damage to plant), CYPES (rate 60): 0
damage to plant (100=total damage to plant; 0=no damage to plant), CYPES (rate 130): 0
damage to plant (100=total damage to plant; 0=no damage to plant), CYPES (rate 250): 0
damage to plant (100=total damage to plant; 0=no damage to plant), CYPES (rate 500): 0
damage to plant (100=total damage to plant; 0=no damage to plant), DIGSA (rate 15): 70
damage to plant (100=total damage to plant; 0=no damage to plant), DIGSA (rate 30): 90
damage to plant (100=total damage to plant; 0=no damage to plant), DIGSA (rate 60): 90
damage to plant (100=total damage to plant; 0=no damage to plant), DIGSA (rate 130): 90
damage to plant (100=total damage to plant; 0=no damage to plant), DIGSA (rate 250): 90
damage to plant (100=total damage to plant; 0=no damage to plant), DIGSA (rate 500): 100
damage to plant (100=total damage to plant; 0=no damage to plant), ECHCG (rate 15): 0
damage to plant (100=total damage to plant; 0=no damage to plant), ECHCG (rate 30): 20
damage to plant (100=total damage to plant; 0=no damage to plant), ECHCG (rate 60): 80
damage to plant (100=total damage to plant; 0=no damage to plant), ECHCG (rate 130): 90
damage to plant (100=total damage to plant; 0=no damage to plant), ECHCG (rate 250): 90
damage to plant (100=total damage to plant; 0=no damage to plant), ECHCG (rate 500): 90
damage to plant (100=total damage to plant; 0=no damage to plant), ELEIN (rate 15): 0
damage to plant (100=total damage to plant; 0=no damage to plant), ELEIN (rate 30): 0
damage to plant (100=total damage to plant; 0=no damage to plant), ELEIN (rate 60): 0
damage to plant (100=total damage to plant; 0=no damage to plant), ELEIN (rate 130): 0
damage to plant (100=total damage to plant; 0=no damage to plant), ELEIN (rate 250): 0
damage to plant (100=total damage to plant; 0=no damage to plant), ELEIN (rate 500): 0
damage to plant (100=total damage to plant; 0=no damage to plant), EPHHL (rate 15): 0
damage to plant (100=total damage to plant; 0=no damage to plant), EPHHL (rate 30): 0
damage to plant (100=total damage to plant; 0=no damage to plant), EPHHL (rate 60): 0
damage to plant (100=total damage to plant; 0=no damage to plant), EPHHL (rate 130): 0
damage to plant (100=total damage to plant; 0=no damage to plant), EPHHL (rate 250): 0
damage to plant (100=total damage to plant; 0=no damage to plant), EPHHL (rate 500): 0
damage to plant (100=total damage to plant; 0=no damage to plant), GLXMA (rate 15): 0
damage to plant (100=total damage to plant; 0=no damage to plant), GLXMA (rate 30): 0
damage to plant (100=total damage to plant; 0=no damage to plant), GLXMA (rate 60): 0
damage to plant (100=total damage to plant; 0=no damage to plant), GLXMA (rate 130): 0
damage to plant (100=total damage to plant; 0=no damage to plant), GLXMA (rate 250): 0
damage to plant (100=total damage to plant; 0=no damage to plant), GLXMA (rate 500): 0
damage to plant (100=total damage to plant; 0=no damage to plant), IPOHE (rate 15): 0
damage to plant (100=total damage to plant; 0=no damage to plant), IPOHE (rate 30): 0
damage to plant (100=total damage to plant; 0=no damage to plant), IPOHE (rate 60): 0
damage to plant (100=total damage to plant; 0=no damage to plant), IPOHE (rate 130): 0
damage to plant (100=total damage to plant; 0=no damage to plant), IPOHE (rate 250): 0
damage to plant (100=total damage to plant; 0=no damage to plant), IPOHE (rate 500): 0
damage to plant (100=total damage to plant; 0=no damage to plant), ORYSA (rate 15): 0
damage to plant (100=total damage to plant; 0=no damage to plant), ORYSA (rate 30): 0
damage to plant (100=total damage to plant; 0=no damage to plant), ORYSA (rate 60): 0
damage to plant (100=total damage to plant; 0=no damage to plant), ORYSA (rate 130): 0
damage to plant (100=total damage to plant; 0=no damage to plant), ORYSA (rate 250): 0
damage to plant (100=total damage to plant; 0=no damage to plant), ORYSA (rate 500): 0
damage to plant (100=total damage to plant; 0=no damage to plant), PANMI (rate 15): 0
damage to plant (100=total damage to plant; 0=no damage to plant), PANMI (rate 30): 0
damage to plant (100=total damage to plant; 0=no damage to plant), PANMI (rate 60): 0
damage to plant (100=total damage to plant; 0=no damage to plant), PANMI (rate 130): 0
damage to plant (100=total damage to plant; 0=no damage to plant), PANMI (rate 250): 0
damage to plant (100=total damage to plant; 0=no damage to plant), PANMI (rate 500): 0
damage to plant (100=total damage to plant; 0=no damage to plant), SETFA (rate 15): 0
damage to plant (100=total damage to plant; 0=no damage to plant), SETFA (rate 30): 60
damage to plant (100=total damage to plant; 0=no damage to plant), SETFA (rate 60): 80
damage to plant (100=total damage to plant; 0=no damage to plant), SETFA (rate 130): 90
damage to plant (100=total damage to plant; 0=no damage to plant), SETFA (rate 250): 90
damage to plant (100=total damage to plant; 0=no damage to plant), SETFA (rate 500): 90
damage to plant (100=total damage to plant; 0=no damage to plant), SORVU (rate 15): 0
damage to plant (100=total damage to plant; 0=no damage to plant), SORVU (rate 30): 0
damage to plant (100=total damage to plant; 0=no damage to plant), SORVU (rate 60): 0
damage to plant (100=total damage to plant; 0=no damage to plant), SORVU (rate 130): 0
damage to plant (100=total damage to plant; 0=no damage to plant), SORVU (rate 250): 0
damage to plant (100=total damage to plant; 0=no damage to plant), SORVU (rate 500): 0
